Assay results: patent US12084451B2, “Compositions and methods for reducing tactile dysfunction, anxiety, and social impairment” (President and Fellows of Harvard College, priority 2018, dated 2024)

System: rodent models of neuropathic pain
Experiment: rodent models of neuropathic pain
Format: in vivo
Description: The utility of peripherally-restricted GABAA receptor PAMs, agonists are not limited to treatment of the above indications; the compounds disclosed herein are also useful for treating touch over-reactivity and pain associated with other disease states, including Sensory Processing Disorder (SPD) and fibromyalgia, as well as mechanical allodynia associated with nerve injury, shingles, diabetic neuropathy, chemotherapy-induced neuropathy and other neuropathic pain states.

In the case of `O=C(O)C1=CCNCC1` [Isoguvacine], the “effect on tactile over-reactivity (mechanical allodynia)” value is reported as “reduces tactile over-reactivity (mechanical allodynia)”.
